{"source": "patent US10131558B1", "about": "“Compositions, methods, and/or systems for managing sulfide” (priority 2016, dated 2018)", "key": {"[1]": {"conditions": "after 2 days; cited from earlier work"}, "[2]": {"test": "Treatment of 2,4-D with hydrogen peroxide alone against hydrogen peroxide/Fe-gluconate", "conditions": "250 mL; 200 microliters 50% hydrogen peroxide, plus 200 microliters Fe-GLC in the combination; after four hours; untreated 130 ppb", "description": "The dissolved sodium bicarbonate increased the alkalinity of the water somewhat, causing the water to mimic a natural water source. Two hundred fifty milliliters of this solution was distributed into three 500 mL Erlenmeyer flasks. […] The flasks were then covered with parafilm and swirled to facilitate mixing of the solution. After four hours a sample from each flask was taken to the pesticide lab at Virginia Tech and analyzed by gas chromatography (GC) for 2,4-D. The findings were as follows: […]"}, "[3]": {"conditions": "10 min; 33 mg/l H2O2 (+44 μg/l VTX as total iron in the combination)", "procedure": "This step was seen to minimize the amount of natural oxidation of added sulfide by sulfide-oxidizing bacteria present in the biosolids. Sodium hydrosulfide was added to 35 liters of wastewater to achieve a starting total sulfide concentration of ˜10 mg/l sulfide. The pH was adjusted within the aquarium to a pH of 7.0 using a dilute solution of hydrochloric acid.\nThe Odalog was affixed using a ring stand to achieve a one centimeter gap between the intake of the Odalog and the surface of the aquarium. […] Wastewater was pulled from near the bottom of the aquarium using a Watson-Marlow Peristaltic Pump capable of delivering 0.001-190 mls/minute. […] The volume of the line prior to discharge equated to ˜100 milliliters. A delivery spray system was mimicked by drilling small holes (0.35 mm) into 0.25 inch tubing distributed evenly above the aquarium. […] A filtration devise was installed in-line to minimize particle clogging with the intake in the tank above the settled biosolids to aid in this process.\nNo catalyst was added along with the peroxide in Treatment 3.\nTesting for total sulfide in solution was conducted prior to beginning treatment at three depths."}, "[4]": {"test": "Treatment of sulfides in municipal wastewater using ferric chelants and hydrogen peroxide", "procedure": "Total sulfides were tested for using Standard Methods 4500-S^2− D with a Hach Chemical Company (of Loveland, Colo.) DR 2000 Spectrophotometer and reagents from Hach specific for this particular test. To keep total sulfides within the range of the test, samples were diluted with distilled water prior to conducting the test as per Hach instructions.\nTests for total sulfide were conducted after 5, 15, and 30 minutes of contact time on each of the seven liter test jars."}, "[5]": {"test": "Treatment of groundwater contaminated with BTEX and MtBE", "conditions": "250 mL groundwater; 1 mL 35% H2O2, plus 1 mL Fe-GLC in the combination; untreated 34 ppb"}, "Fecal Coliform": {"test_system": "Fecal Coliform", "test": "Disinfecting wastewater, peroxide alone vs Fe-GLC and peroxide", "format": "cell-based", "conditions": "20 mg H2O2 (50 microliters 35%), plus 50 microliters Fe-GLC in the combination; after twenty minutes; control 2200", "source_text": "A sample of wastewater was collected from the influent of the chlorine contact chamber of the York River Wastewater Treatment Plant in Yorktown, Va. The samples were divided equally into three clean 500 milliliter sample containers from the single sample taken. The first sample served as a control and was set aside. […] Each sample was capped and shaken briefly to mix the contents. After twenty minutes, sub-samples were taken from each vessel and pored into fecal coliform sample containers for analysis at the Hampton Roads Sanitary District lab."}, "[6]": {"test": "Treatment of groundwater contaminated with BTEX and MtBE", "conditions": "250 mL groundwater; 1 mL 35% H2O2, plus 1 mL Fe-GLC in the combination; untreated 27 ppb"}, "[7]": {"test": "Vapor suppression spray test, hydrogen sulfide above test water", "conditions": "no treatment 18", "procedure": "A solution of ferric glucontate treatment was prepared using 2.0 M ferric gluconate solution along with distilled water to achieve a final concentration of ferric gluconate at 5 mg/ml, as ferric iron.\nA five gallon bucket containing five liters of de-ionized water was infused with 10 parts per million of total sulfide using technical grade anhydrous Sodium Hydrosulfide. The pH of the water was then adjusted to a pH of 7.0 using a dilute solution of hydrochloric acid.\nAfter cleaning the bucket for control testing for each study, five additional liters of de-ionized water was added and the same quantity of sulfide was infused into the fresh water and the pH adjusted to 7.0."}, "[8]": {"test": "Treatment of groundwater contaminated with BTEX and MtBE", "conditions": "250 mL groundwater; 1 mL 35% H2O2, plus 1 mL Fe-GLC in the combination; untreated 171 ppb"}, "[9]": {"test": "Treatment of groundwater contaminated with BTEX and MtBE", "conditions": "250 mL groundwater; 1 mL 35% H2O2, plus 1 mL Fe-GLC in the combination; untreated 159 ppb"}, "[10]": {"test": "Treatment of groundwater contaminated with BTEX and MtBE", "conditions": "250 mL groundwater; 1 mL 35% H2O2, plus 1 mL Fe-GLC in the combination; untreated 56 ppb"}, "[11]": {"test": "Full scale lagoon treatment system (spray)", "text": "The system was designed to treat sulfide and recirculate sulfide-free wastewater from the lagoon in a continuous manner and reuse the treated wastewater in such a manner as to gain substantially complete control of hydrogen sulfide escaping to the atmosphere. […] The capping of the lagoon was accomplished by spray applying sulfide-free treated wastewater using a spray application system specifically designed to gain complete or nearly complete coverage of the surface area of the lagoon. Importantly, the spray application system imparted minimal mixing to the untreated surface of the lagoon. Any significant mixing of the surface water within the lagoon could be problematic for hydrogen sulfide release. Gently spray-applying sulfide-free water over the lagoon served to effectively cap the lagoon with minimal mixing, thus preventing gaseous sulfide from escaping to the atmosphere. Further, by assuring that the treated wastewater returning to the lagoon surface contained excess oxidation treatment chemicals, any fugitive sulfide that might have risen through the cap could be mitigated.\nThe water proceeding eastward turns north at the end of the lagoon and travelling back westward where it is pumped out of the lagoon at the northwest end.\nThis system is primarily driven by a large electrically powered Cornell pump denoted by the “Pump” box in FIG. 5. The pump sits on a 40′ wide elevated dyke that runs down the center of the lagoon. Water is pumped out of the northwest side of the lagoon via a 12″ HDPE “Pump Intake” pipe and flows through the Cornell pump and then down the dyke in the center of the lagoon via an 8″ HDPE main pipe. […] These injection locations are designated by the “1” and “2” circles in FIG. 5. T valves were installed into the 8″ main line, redirecting a portion of the water from the 8″ main pipe out to each of 27 different floats via 2″ HDPE piping. The Nelson F100 series Big Gun spray irrigation heads were mounted on the floats and directly connected to the 2″ HDPE piping. Around 47 PSI of water pressure was constantly maintained to allow sufficient working pressure for each of the 27 spray irrigation heads. The chemical being dosed into the line via the Verdeflex pumps was carefully calculated to ensure sufficient Ferric Gluconate and Hydrogen Peroxide were present in the line to not only ensure substantially complete destruction of all sulfide in the line but to provide a surplus of chemicals for additional treatment upon contact with any sulfides in the pond. […]\nPrior to treatment initiation, samples were taken starting on Mar. […] A quantity of 45 gallons per hour (540 gallons per 12 hour period) of 50% Peroxide and 20 gallons per hour of Ferric Gluconate (240 gallons per 12 hour period) were pumped into the lagoon via the sprayer system."}, "[12]": {"test_system": "total heterotrophic bacteria", "test": "Disinfection of wastewater using chelated iron compounds", "format": "cell-based", "conditions": "30 min, raw average 18,188 CFUs", "description": "The clarified supernatant was then pored off of the top of the settled solids within the sample. The supernatant was then mixed and four samples were collected to determine untreated heterotrophic bacteria counts. […] were dissolved in distilled water at 0.4334M. Ferric chloride was added in amounts to achieve saturation of chelant sites on the respective chelants. […] Twenty individual liter samples of supernatant were then decanted from the well-mixed wastewater sample for testing. Four chelated iron products with peroxide were tested at two test concentrations and compared to samples receiving peroxide only and iron chelate only. […] Samples were then decanted to sterile sample containers containing sodium thiosulfate to stop the oxidation process and preserve the sample. Samples were then placed in a refrigerator until all samples were finished. Samples were packaged in a standard cooler with ice packs and sent via overnite delivery to ProChem Labs in Lynchburg, Va. for analysis for total heterotrophic bacteria counts."}, "[13]": {"test": "SMBSC pilot demonstration, lagoon spray system", "conditions": "Trial 1, samplings T2-T5", "source_text": "The exemplary system and method was designed to utilize 1.7 million gallons per day of the 35 to 40 million gallons of high strength wastewater within the lagoon as a carrier for treatment chemistry. Flow into the lagoon varied. Influent was mostly high organic strength wastewater. A typical daily flow rate approximated 500,000 gallons.\nThe utilized system and method sought to efficiently cover as much of the lagoon surface with treated wastewater containing excess quantities of treatment chemistry as practically possible. For spray nozzles, the system and method utilized 100 series Big Gun sprinklers (available from Nelson Irrigation Corporation of Walla Walla, Wash.) oriented in a pattern to assure maximum coverage of targeted surface area of the lagoon. […] The pressure varied depending on the demand of the spray nozzles and surface coverage demand. Further, the effectiveness relied somewhat on delivery of sufficient volume of treated wastewater containing excess treatment chemistry to the surface of the lagoon to adequately suppress sulfide at or near the surface of the lagoon. […] Treatment chemistry for the returned treated wastewater was dosed to treat sulfide within the uptake wastewater and over dosed with added treatment chemistry to accommodate the expected need for treatment within the surface water of the receiving lagoon. […] This dosage application assumed these ratios for each hour of continuous treatment.\nThe method used for this pilot study for dosing was estimated by taking surface and mid-depth samples of the untreated lagoon and testing for sulfide.\nStation D1 referred to a dam where water flowed down through the dam into the remaining run of the retention lagoon."}, "[14]": {"test": "Full scale lagoon treatment system using eductors", "conditions": "across all stations, eductor system, September 2016", "description": "Due to concerns about fugitive airborne spray entering the environment and, potentially, drifting onto a nearby public road, SMBSC management requested an underwater eductor system be installed to replace the Nelson spray irrigation system described previously. Therefore, a full scale trial using a commercially available surface chemical application system and method was tested at the SMBSC. The objective of the test was to determine if a system designed to apply oxidation treatment chemicals just below the surface of the large wastewater lagoon at SMBSC was as effective as the spray system that minimized surface mixing. It was surmised that the system would achieve similar results to the spray application approach due to minimal disturbance to lagoon subsurface wastewater. The eductor system slowly spun in a circular pattern similar to the circular pattern of the spray system. The Serfilco eductor system pulled wastewater from the contaminated lagoon using the identical system of treatment used for the Nelson spray system. The only variation was the application mechanism of eduction versus spray. The eduction system relied on the force of the wastewater flowing back into the eductor distribution arms to force the circular motion of the arms distributing oxidation chemicals. All aspects of the system were the same except for the distribution system. […]"}, "[15]": {"test": "Treatment of sulfides in municipal wastewater using ferric chelants and ozone", "conditions": "ozone ~13.4 ppm, 4 ppm ferric chelant where used; for sulfide remaining: start 13.70", "text": "The raw wastewater received a dose of 4 ppm of each of the four ferric chelants (mass calculated as chelant) just prior to addition of ozone.\nOzone addition was accomplished using an ozone generator from Ozone Solutions, Sioux Center, Iowa. The generator was capable of generating up to 2 grams per hour of ozone. Injection of ozone into the wastewater was accomplished using an injection system from Ozone Solutions called the H2O-Mini. The unit is designed to treat from 1.5 to 5.7 liters per minute of wastewater. The unit was set up to deliver 6.7 mg/minute of dissolved ozone (assumed the 80% efficiency of dissolution noted by the manufacturer) to wastewater passing the injection nozzle within the H2O-mini. Each test was designed for maximum wastewater flow through the H2O-mini (5.7 liters/min).\nAn objective of the study will be to treat most, but not all, of the sulfide present within the individual test samples in order to determine which treatment was more efficient than the others.\nSamples were taken over twenty minutes of contact time from the recirculation vessel after ozonation. For each of the four ferric chelant studies, chelants were added to the wastewater recirculation vessels just prior to starting the injection of ozone and recirculation of the liquids. The injection of ozone was applied over the prescribed period and sampled as before in the ozone only experiment."}, "[16]": {"conditions": "spray system on, April 2016, date by row, same dosage"}}, "note": "Several values for one entry are separate records, joined by “and”; a condition that tells them apart may be missing. Equal entries are not always repeated.", "data": [{"compound": "O=C([O-])[C@H](O)[C@@H](O)[C@H](O)[C@H](O)CO.[Na+]", "note": "[Sodium gluconate, sodium gluconate]", "values": [{"measurement": "readily biodegradable", "setting": "[1]", "value": 98, "unit": "%"}]}, {"compound": "OO", "note": "[H2O2, hydrogen peroxide]", "values": [{"measurement": "2,4-D", "setting": "[2]", "value": 230, "unit": "ppb"}, {"measurement": "H2S Above H2O", "setting": "[3]", "value": 17, "unit": "PPM"}, {"measurement": "Total Sulfide 1 CM Depth", "setting": "[3]", "value": 8.5, "unit": "mg/L"}, {"measurement": "Total Sulfide 2 CM Depth", "setting": "[3]", "value": 9.1, "unit": "mg/L"}, {"measurement": "Total Sulfide 3 CM Depth", "setting": "[3]", "value": 9.3, "unit": "mg/L"}, {"measurement": "Percentage of Sulfide Treated After 30 Minutes", "setting": "[4]; 1.5:1.0 peroxide to sulfide, Dose 3, 38.7 ppm H2O2 only (control run of the chelant named in the row)", "value": "59.0 and 46.5 and 56.3 and 57.0 and 55.5 and 54.7"}, {"measurement": "Percentage of Sulfide Treated After 30 Minutes", "setting": "[4]; 2.5:1.0 peroxide to sulfide, Dose 3, 105.8 ppm H2O2 only (control run of the chelant named in the row)", "value": "69.0 and 69.5 and 67.8 and 66.4 and 44.4 and 69.3 and 70.2"}, {"measurement": "sulfide reduction after 15 minutes, average", "setting": "[4]; hydrogen peroxide alone, 2.5:1.0 peroxide to sulfide", "value": 52, "unit": "%"}, {"measurement": "sulfide treatment after 15 minutes", "setting": "[4]; peroxide alone, 37.8 ppm level", "value": 42.9, "unit": "%"}, {"measurement": "Ethylbenzene after treatment", "setting": "[5]", "value": 13.0, "unit": "ppb"}, {"measurement": "Fecal Coliform", "setting": "Fecal Coliform", "value": 53, "unit": "cfu/100 mL"}, {"measurement": "MtBE after treatment", "setting": "[6]", "value": 15.7, "unit": "ppb"}, {"measurement": "H2S reading after 10 minutes", "setting": "[7]; 1 ml of 15 mg/ml H2O2", "value": 6, "unit": "ppm"}, {"measurement": "H2S reading after 10 minutes", "setting": "[7]; 3 ml of 15 mg/ml H2O2", "value": 4, "unit": "ppm"}, {"measurement": "H2S reading after 10 minutes", "setting": "[7]; 5 ml of 15 mg/ml H2O2 sprayed on 5 L water with 10 ppm total sulfide, pH 7.0", "value": 3, "unit": "ppm"}, {"measurement": "Toluene after treatment", "setting": "[8]", "value": 55.7, "unit": "ppb"}, {"measurement": "Xylenes after treatment", "setting": "[9]", "value": 67.0, "unit": "ppb"}, {"measurement": "Benzene after treatment", "setting": "[10]", "value": 15.1, "unit": "ppb"}]}, {"compound": "ferric gluconate [Fe-GLC]", "values": [{"measurement": "average sulfide measurement", "setting": "[11]; one month, five sampling locations, spray system, untreated average 1.06 mg/l", "value": 0.06, "unit": "mg/L"}, {"measurement": "Aqueous Sulfide, Station 1 (surface)", "setting": "[11]; [16]", "value": 0.00, "unit": "mg/L"}, {"measurement": "Aqueous Sulfide, Station 4 (surface)", "setting": "[11]; [16]", "value": 0.00, "unit": "mg/L"}, {"measurement": "sulfide in wastewater spray upon exiting the spray nozzles", "setting": "[11]; with proper dosage of oxidation chemicals", "value": 0.00, "unit": "mg/L"}, {"measurement": "sulfide reduction after 15 minutes", "setting": "[4]; 20 ppm chelant and 105.8 ppm hydrogen peroxide", "value": 86.8, "unit": "%"}, {"measurement": "Test 1 CFUs/ml 19.8 ppm H2O2 6 ppm Fe-Chelant", "setting": "[12]", "value": 98, "unit": "CFUs/ml"}, {"measurement": "Test 2 CFUs/ml 39.6 ppm H2O2 12 ppm Fe-Chelant", "setting": "[12]", "value": 28, "unit": "CFUs/ml"}, {"measurement": "Test 3 CFUs/ml 12 ppm Fe-Chelant", "setting": "[12]; chelant alone, no H2O2", "value": "22,600 CFUs/ml"}, {"measurement": "Aqueous Sulfide, location 1S", "setting": "[13]; same dosage, T1 before treatment 1.35", "value": "0 ppm and 0.00 ppm"}, {"measurement": "Gaseous Sulfide downwind at lagoon edge, Station 2", "setting": "[13]", "value": 0.00, "unit": "ppm"}, {"measurement": "Gaseous Sulfide downwind at lagoon edge, Station 3", "setting": "[13]", "value": 0.00, "unit": "ppm"}, {"measurement": "average sulfide measurement", "setting": "[14]", "value": 2.14, "unit": "mg/L"}, {"measurement": "Overall total percentage of sulfide reduction", "setting": "[15]", "value": 90, "unit": "%"}, {"measurement": "Overall total percentage of sulfide reduction", "setting": "[15]; listed as Fe-Gluconate", "value": 90, "unit": "%"}, {"measurement": "sulfide remaining", "setting": "[15]; 5 min contact", "value": 3.40, "unit": "ppm"}, {"measurement": "sulfide remaining", "setting": "[15]; 10 min contact", "value": 2.80, "unit": "ppm"}, {"measurement": "sulfide remaining", "setting": "[15]; 20 min contact", "value": 1.40, "unit": "ppm"}]}]}
